From patent US20180071354A1, “SELECTIVE BREEDING METHOD OF ANTITUMOR/ANTICANCER CAMELLIA SINENSIS STRAIN, AND TEA PRODUCT OF SUCH STRAIN” (FUJIAN AGRICULTURE AND FORESTRY UNIVERSITY, priority 2015, published 2018) come the findings set out here.

In data set [1] the test system is HepG2 transplanted tumor (inoculated tumor tissue pieces). The experiment in a line: In vivo antitumor testing, second and third experiments (Animal Model 2). Details: species or system BALB/c nude mice. The following applies: second experiment. How it is done:
The establishment of Animal Model 2 is described below. Male BALB/c nude mice (5 to 6 weeks of age, a body weight of 15 to 16 g, certificate number: SCXK (Hu) 2012-0002) were purchased from Shanghai Silaike Experiment Animal Co., Ltd and were acclimatized for one week. A cell suspension of HepG2 cells having a concentration of 1×10^7 cells/mL was prepared using the same method as that for preparing the cell suspension for Animal Model 1. 0.2 mL of the cell suspension was subcutaneously injected into the back of each of 5 nude mice. […] Tea Product 1 and Conventional Tea Product obtained in section A of Example 3, as well as 5-fluorouracil mentioned in section B of Example 3, were examined for their in vivo antitumor activity. […] In the third experiment, nude mice of Animal Model 2 were divided into three groups, i.e. a control group (n=11), a Tea Product 1 group (n=11), and a Conventional Tea Product group (n=8). […] In all the three experiments above, each of the nude mice was sacrificed 24 hours after the termination of the treatment. The tumor was collected and weighed. The antitumor effect of a respective test substance was evaluated by virtue of the percent tumor growth inhibition (%), which was calculated using the following Equation II: E=[(F−G)/(F)]×100% (I) • E=percent tumor growth inhibition (%) • F=tumor weight of control group • G=tumor weight of respective test substance group The experimental data are expressed as mean±SEM (standard error of the mean). The experimental data were subjected to one-way analysis of variance (ANOVA) using SPSS (Statistical Package for Social Sciences) software package version 11.5, such that the difference between the groups could be evaluated. The data regarding the tumor weights of the groups were subjected to t-test. Statistical significance is indicated by p<0.05.

The test system of data set [2] is human ovarian cancer cell line SK-OV-3. Description: In vitro antitumor/anticancer testing (CCK-8), SK-OV-3. Format: cell-based. Conditions: 48 h. How it is done: (§1) Each of Tea Product 1 and Conventional Tea Product obtained in section A of this example was used to prepare test tea samples according to the method described below. A proper amount of the respective tea product was added into sterile water to prepare a stock solution with a concentration of 100 mg/mL, followed by using a membrane filter with a pore size of 0.22 μm to conduct vacuum filtration and sterilization. The resulting stock solution was diluted with a respective complete medium shown in Table 3 below to form test tea samples with different concentrations. In other words, the thus obtained test tea samples to be used for treating a respective cancer/tumor cell line shown in Table 3 were prepared using the same complete medium as that for the respective cancer/tumor cell line. […] Specifically, each of the aforesaid commercially available agents was subjected to the method described below to prepare comparative test samples. A proper amount of a respective commercially available agent was dissolved in phosphate-buffered saline (PBS) to prepare a stock solution with a concentration of 5 mg/mL, followed by using a membrane filter with a pore size of 0.22 μm to conduct vacuum filtration and sterilization. The resulting stock solution was diluted with a respective complete medium shown in Table 3 below to form comparative test samples with different concentrations. To be specific, the comparative test samples prepared from the respective commercially available agent have the concentrations shown in Table 2 below. The thus obtained comparative test samples to be used for treating a respective cancer/tumor cell line shown in Table 3 were prepared using the same complete medium as that for the respective cancer/tumor cell line. […] The cultivation of each cancer/tumor cell line is described as follows. […] Afterwards, a cell suspension having a cell density of 1.0×10^4 cells/mL was prepared. […] As experimental groups, the tumor/cancer cells of each cell line were treated with the test tea samples prepared from one or more of the tea products and the comparative test samples prepared from one or more of the commercially available agents as obtained in section B of this example (for more detailed information about the tea product(s) and the commercially available product (s) used to treat each cell line, please see Table 4 below). To be specific, 6 to 10 test tea samples prepared from the same tea product and having different concentrations, as well as 6 to 10 comparative test samples prepared from the same commercially available agent and having different concentrations, were utilized to treat the tumor/cancer cells of each cell line. For each experimental group, 6 repetitions of tumor/cancer treatment were performed. For the control group, 100 μL of PBS was added to a well containing the medium and the cancer/tumor cells of the respective cell line. For the blank group, 100 μL of PBS was added to a well containing a complete medium the same as that used for cultivation of the cancer/tumor cells of the respective cell line. After the treatment described above, cultivation was conducted in an incubator (37° C., 100% relative humidity, 5% CO2) for 48 hours. Subsequently, the liquid containing the medium and the sample in the well was removed, and a respective complete medium (shown in Table 3 above) containing 10% CCK-8 (Cell Counting Kit-8)(Dojindo Molecular Technologies, Inc., Cat. No. CK04-13) was added. Cultivation was performed in an incubator (37° C.) for 2 to 4 hours, followed by gently shaking.

Data set [3] concerns human glioblastoma cell line U-87MG. The experiment in a line: In vitro antitumor/anticancer testing (CCK-8), U-87MG. The following applies: 48 h. Format: cell-based. How it is done:
as §1

In data set [4] the test system is human mammary gland/duct cancer cell line BT-474. The experiment in a line: In vitro antitumor/anticancer testing (CCK-8), BT-474. The class given is cell-based. Conditions: 48 h. How it is done:
as §1

The mark [5] stands for this setting: 35 days, 5-fluorouracil 15.0 mg/kg per day intra-abdominal injection, Tea Product 1 0.6 mL of 10% per day intragastric gavage.

Consider `O=c1[nH]cc(F)c(=O)[nH]1` [5-fluorouracil], for which the “Body weight Before treatment” value in data set [1] (Animal Model 2, baseline) is reported as 17.22 g. Moreover, in data set [1] (setting [5]), the “Body weight After treatment” value is reported as 24.32 g, the “Percent tumor growth inhibition” value came to 48.96% and the Tumor weight was determined as 0.034 g.

In the case of `O=C(O[C@@H]1Cc2c(O)cc(O)cc2O[C@@H]1c1cc(O)c(O)c(O)c1)c1cc(O)c(O)c(O)c1` [EGCG monomer, epigallocatechin gallate], the Percent growth inhibition is given as 2.20% in data set [2] (0.3125 μg/mL); 3.98% in data set [2] (0.625 μg/mL); 3.64% in data set [2] (1.25 μg/mL); 5.54% in data set [2] (2.5 μg/mL); 6.15% in data set [2] (5 μg/mL); 4.47% in data set [2] (10 μg/mL). Also, the Percent growth inhibition came out at 36.88% in data set [2] (20 μg/mL); 81.73% in data set [2] (40 μg/mL); 99.42% in data set [2] (80 μg/mL); 2.29% in data set [3] (2.5 μg/mL); 2.94% in data set [3] (5 μg/mL); 5.82% in data set [3] (10 μg/mL). The Percent growth inhibition is on record as 15.72% in data set [3] (20 μg/mL); 15.15% in data set [3] (40 μg/mL); 2.45% in data set [3] (80 μg/mL); 82.81% in data set [3] (160 μg/mL); 98.43% in data set [3] (320 μg/mL); 98.03% in data set [3] (640 μg/mL). Also, the Percent growth inhibition in data set [4] (2.5 μg/mL) is recorded as 6.51%; in data set [4] (5 μg/mL), 2.62%; in data set [4] (10 μg/mL), −2.75%; in data set [4] (20 μg/mL), −6.45%; in data set [4] (40 μg/mL), −20.61%; in data set [4] (80 μg/mL) it was 57.40%. In addition, the Percent growth inhibition in data set [4] (160 μg/mL) is recorded as 96.45%; in data set [4] (320 μg/mL) it was 97.46%; in data set [4] (640 μg/mL) it was 97.03%. Besides, the IC50 result was “IC50 (μg/mL) = 24.05” in data set [2] (SK-OV-3), “IC50 (μg/mL) = 76.85” in data set [3] (U-87MG) and “IC50 (μg/mL) = 74.75” in data set [4] (BT-474).
